# Data: patent US20190054090A1, “COMBINATION OF A BTK INHIBITOR AND A CHECKPOINT INHIBITOR FOR TREATING CANCERS” (Gilead Sciences, Inc., priority 2015, published 2019)
# Legend:
# [1] = test system: A20 cell line (ATCC), mouse B-cell lymphoma; test: in vivo anti-tumor activity in A20 syngeneic tumors; conditions: first study, Compound A1 46 mg/kg/day in diet (0.037%), 4H2 i.p. 20 mg/kg day 0 then 10 mg/kg every 6 days, n=9
# Experimental: This example evaluated in vivo anti-tumor activity of a BTK inhibitor Compound A1 in combination with an anti-PD-1 antibody (4H2), (Kitayama Labes Co., Ltd) in syngeneic tumors.
# A20 cell line (ATCC), mouse B-cell lymphoma, were maintained in lymphocyte growth medium (LGM): RPMI-1640 supplemented with 10% FBS, 1% penicillin-streptomycin. Fresh 1% (vol) Monothioglycerol was also added to the culture. The cell suspension of 2×10^6 to 4×10^6 cells per dish was cultured at 37° C., 5% CO2. The cells were suspended in PBS (5×10^7 cells/mL).
# A20-bearing BALB/c mice were subcutaneously injected (5×10^6 cells per animal). Day 6 after cell injection (day 0), mice having the tumor volume of about were 200 mm^3 were randomized into four groups (n=9 per group) for treatment with vehicle (CRF-1), Compound A1, 4H2, or Compound A1 and 4H2. Mice were fed diets containing of Compound A1. 4H2 was administered intraperitoneally at 20 mg/kg on day 0 followed by 10 mg/kg every 6 days; the average dose of Compound A1 was 46 mg/kg/day (CRF-1 at 0.037%) in the first and second studies or 15 mg/kg/day (CRF-1 at 0.012%) in the second study. During the studies, tumor volume (long axis of tumor×(short axis of tumor)^2×0.5), tumor growth inhibition rate (TGI, as compared to tumors of the vehicle control group), temporal changes in tumor volume, body weight, or food intake were determined. The studies were terminated when tumors reached a maximum of 3,000 mm^3. […]
# [2] = body weight of A20-bearing BALB/c mice; type: in vivo; conditions: first study, Compound A1 46 mg/kg/day in diet (0.037%), 4H2 i.p. 20 mg/kg day 0 then 10 mg/kg every 6 days, n=9
# Experimental: A20-bearing BALB/c mice were subcutaneously injected (5×10^6 cells per animal). Day 6 after cell injection (day 0), mice having the tumor volume of about were 200 mm^3 were randomized into four groups (n=9 per group) for treatment with vehicle (CRF-1), Compound A1, 4H2, or Compound A1 and 4H2. Mice were fed diets containing of Compound A1. 4H2 was administered intraperitoneally at 20 mg/kg on day 0 followed by 10 mg/kg every 6 days; the average dose of Compound A1 was 46 mg/kg/day (CRF-1 at 0.037%) in the first and second studies or 15 mg/kg/day (CRF-1 at 0.012%) in the second study. During the studies, tumor volume (long axis of tumor×(short axis of tumor)^2×0.5), tumor growth inhibition rate (TGI, as compared to tumors of the vehicle control group), temporal changes in tumor volume, body weight, or food intake were determined. The studies were terminated when tumors reached a maximum of 3,000 mm^3.
# In the second study, the effects of Compound A1 at 15 mg/kg/day (CRF-1 at 0.012%) and 46 mg/kg/day (CRF-1 at 0.037%) were evaluated. Similar protocols as described above were used. The study (n=12 per group) was terminated at day 17.
# [3] = body weight of L1210-bearing DBA-2 mice; type: in vivo; conditions: Compound A1 54 mg/kg/day in diet (0.037%), 4H2 i.p. 20 mg/kg day 0 then 10 mg/kg every 6 days, n=8
# Experimental: (§1) This example evaluated in vivo anti-tumor activity of a BTK inhibitor (Compound A1) in combination with an anti-PD-1 antibody (4H2) in syngeneic tumors. Similar protocols as described above were used with L1210 cell line (JCRB), mouse lymphocytic leukemia.
# (§2) L1210-bearing DBA-2 mice were subcutaneously injected (5×10^5 cells/animal). Mice were randomized into four groups (n=8 per group) for treatment with vehicle (CRF-1), Compound A1, 4H2 (10 mg/kg every 6 days), or Compound A1 and 4H2. Mice were fed diets containing of Compound A1. 4H2 was administered intraperitoneally at 20 mg/kg on day 0 followed by 10 mg/kg every 6 days. The average dose of Compound A1 was 54 mg/kg/day (CRF-1 at 0.037%).
# [4] = test system: L1210 cell line (JCRB), mouse lymphocytic leukemia; test: in vivo anti-tumor activity in L1210 syngeneic tumors; conditions: Compound A1 54 mg/kg/day in diet (0.037%), 4H2 i.p. 20 mg/kg day 0 then 10 mg/kg every 6 days, n=8
# Experimental: as §1, §2
# [5] = test system: B-cell lymphoma A20; conditions: previously reported, Sagiv-Barfi et al. PNAS 2015; cited from earlier work
smiles,measurement,setting,value
"CC#CC(=O)N1CC[C@@H](n2c(=O)n(-c3ccc(Oc4ccccc4)cc3)c3c(N)ncnc32)C1 [Compound A1, (R)-6-amino-9-(1-(but-2-ynoyl)pyrrolidin-3-yl)-7-(4-phenoxyphenyl)-7H-purin-8(9H)-one]",average tumor volume (±standard error),[1]; day 0,168 (±11) mm^3
same,"tumor growth inhibition rate (TGI, as compared to tumors of the vehicle control group)",[1]; day 0,0.8%
same,average tumor volume (±standard error),[1]; day 2,248 (±18) mm^3
same,"tumor growth inhibition rate (TGI, as compared to tumors of the vehicle control group)",[1]; day 2,14%
same,average tumor volume (±standard error),[1]; day 6,331 (±32) mm^3
same,"tumor growth inhibition rate (TGI, as compared to tumors of the vehicle control group)",[1]; day 6,23%
same,average tumor volume (±standard error),[1]; day 9,632 (±61) mm^3
same,"tumor growth inhibition rate (TGI, as compared to tumors of the vehicle control group)",[1]; day 9,−12%
same,average tumor volume (±standard error),[1]; day 12,805 (±104) mm^3
same,"tumor growth inhibition rate (TGI, as compared to tumors of the vehicle control group)",[1]; day 12,9%
same,average tumor volume (±standard error),[1]; day 15,1408 (±157) mm^3
same,"tumor growth inhibition rate (TGI, as compared to tumors of the vehicle control group)",[1]; day 15,8%
same,average tumor volume (±standard error),[1]; day 19,2553 (±272) mm^3
same,"tumor growth inhibition rate (TGI, as compared to tumors of the vehicle control group)",[1]; day 19,10%
same,average body weight (±standard error),[2]; day 0,19 (±0.4) g
same,average body weight (±standard error),[2]; day 2,19 (±0.4) g
same,average body weight (±standard error),[2]; day 6,20 (±0.3) g
same,average body weight (±standard error),[2]; day 9,20 (±0.3) g
same,average body weight (±standard error),[2]; day 12,21 (±0.3) g
same,average body weight (±standard error),[2]; day 15,21 (±0.3) g
same,average body weight (±standard error),[2]; day 19,22 (±0.4) g
same,average body weight (±standard error),[3]; day 0,15 (±0.4) g
same,average body weight (±standard error),[3]; day 4,16 (±0.4) g
same,average body weight (±standard error),[3]; day 7,16 (±0.4) g
same,average body weight (±standard error),[3]; day 10,17 (±0.5) g
same,average body weight (±standard error),[3]; day 12,18 (±0.4) g
same,average body weight (±standard error),[3]; day 14,19 (±0.5) g
same,average tumor volume (±standard error),[4]; day 0,0 (±0) mm^3
same,average tumor volume (±standard error),[4]; day 4,71 (±16) mm^3
same,tumor growth inhibition rate (TGI),[4]; day 4,8%
same,average tumor volume (±standard error),[4]; day 7,247 (±34) mm^3
same,tumor growth inhibition rate (TGI),[4]; day 7,30%
same,average tumor volume (±standard error),[4]; day 10,874 (±108) mm^3
same,tumor growth inhibition rate (TGI),[4]; day 10,7%
same,average tumor volume (±standard error),[4]; day 12,1851 (±226) mm^3
same,tumor growth inhibition rate (TGI),[4]; day 12,−0.7%
same,average tumor volume (±standard error),[4]; day 14,3279 (±321) mm^3
same,tumor growth inhibition rate (TGI),[4]; day 14,−0.2%
"C=CC(=O)N1CCC[C@@H](n2nc(-c3ccc(Oc4ccccc4)cc3)c3c(N)ncnc32)C1 [ibrutinib, 1-[(3R)-3-[4-Amino-3-(4-phenoxyphenyl)-1H-pyrazolo[3,4-d]pyrimidin-1-yl]piperidin-1-yl]prop-2-en-1-one]",sensitivity of B-cell lymphoma A20 to the Btk inhibitor,[5],would not be sensitive
